System: pentagastrin-stimulated acid secretion of the perfused rat stomach
Assay: Secretion-inhibiting action on the perfused rat stomach (pentagastrin-stimulated acid secretion, intraduodenal administration in vivo)
Conditions: Table A, dose 1 μmol/kg i.d., anesthetized CD rat
Excerpt: Testing of the Secretion-Inhibiting Action on the Perfused Rat Stomach
In Table A which follows, the influence of the compounds of the formula 1 according to the invention on the pentagastrin-stimulated acid secretion of the perfused rat stomach after intraduodenal administration in vivo is shown.
In Table B which follows, the influence of the compounds of the formula 1-a according to the invention and of their optical antipodes of the formula 1-b on the pentagastrin-stimulated acid secretion of the perfused rat stomach after intraduodenal administration in vivo is shown.
The abdomen of anesthetized rats (CD rat, female, 200-250 g; 1.5 g/kg i.m. urethane) was opened after tracheotomy by a median upper abdominal incision and a PVC catheter was fixed transorally in the esophagus and another via the pylorus such that the ends of the tubes just projected into the gastric lumen. The catheter leading from the pylorus led outward into the right abdominal wall through a side opening.
After thorough rinsing (about 50-100 ml), warm (37° C.) physiological NaCl solution was continuously passed through the stomach (0.5 ml/min, pH 6.8-6.9; Braun-Unita I). The pH (pH meter 632, glass electrode EA 147; φ=5 mm, Metrohm) and, by titration with a freshly prepared 0.01N NaOH solution to pH 7 (Dosimat 665 Metrohm), the secreted HCl were determined in the effluent in each case collected at an interval of 15 minutes.
The gastric secretion was stimulated by continuous infusion of […] (=1.65 ml/h) of i.v. pentagastrin (left femoral vein) about 30 min after the end of the operation (i.e. after determination of 2 preliminary fractions). The substances to be tested were administered intraduodenally in a 2.5 ml/kg liquid volume 60 min after the start of the continuous pentagastrin infusion. The body temperature of the animals was kept at a constant 37.8-38° C. by infrared irradiation and heat pads (automatic, stepless control by means of a rectal temperature sensor).

Compound | Inhibition of acid secretion (%)
COCCNC(=O)c1c(C)nc2c3c(c(C(=O)N(C)C)cn12)CCC(c1ccccc1)O3 (centres unmarked) [Example 4, 2-Methyl-9-phenyl-7H-8,9-dihydro-pyrano[2,3-c]imidazo[1,2-a]pyridine-3,6-dicarboxylic acid 3-[(2-methoxyethyl)amide]6-dimethylamide] | >40
CC#CC(=O)c1c(C)nc2c3c(c(C(=O)N(C)C)cn12)CCC(c1ccccc1)O3 (centres unmarked) [Example 6, 2-Methyl-3-(1-oxo-2-butynyl)-9-phenyl-7H-8,9-dihydro-pyrano[2,3-c]imidazo[1,2-a]pyridine-6-carboxylic acid dimethylamide] | >40
CC(=O)c1c(C)nc2c3c(c(C(=O)N(C)C)cn12)CCC(c1ccccc1)O3 (centres unmarked) [Example 9, 3-Acetyl-2-methyl-9-phenyl-7H-8,9-dihydro-pyrano[2,3-c]imidazo-[1,2-a]pyridine-6-carboxylic acid dimethylamide] | >40
Cc1nc2c3c(c(C(=O)N4CCC4)cn2c1C)CCC(c1ccccc1)O3 (centres unmarked) [Example 11, (2,3-Dimethyl-9-phenyl-7H-8,9-dihydro-pyrano[2,3-c]-imidazo[1,2-a]pyridin-6-yl)-azetidin-1-yl methanone] | >70
Cc1nc2c3c(c(C(=O)NC4CC4)cn2c1C)CCC(c1ccccc1)O3 (centres unmarked) [Example 13, 2,3-Dimethyl-9-phenyl-7H-8,9-dihydro-pyrano[2,3-c]-imidazo[1,2-a]pyridine-6-carboxylic acid cyclopropylamide] | >70

From patent publication US20070191334A1, “Tricyclic imidazopyridines” (ALTANA PHARMA AG, priority 2004, published 2007)
